Values of other authors, collected in patent US11357752B2, “Carolacton and derivatives thereof for use in the treatment of cell proliferation disorders” (Helmholtz-Zentrum für Infektionsforschung GmbH, priority 2017, dated 2022).

Test system: MTHFD1 or MTHFD2
Conditions: prior-art inhibitor, poor activity; cited from earlier work

Compound: Nc1nc2c(c(=O)[nH]1)N1C(=O)N(c3ccc(C(=O)N[C@@H](CCC(=O)O)C(=O)O)cc3)CC1CN2 (stereo partly shown) [LY345899]
- IC50: 128 µM
